Test results published in patent US20200037609A1, “HERBICIDAL COMPOSITIONS AND METHODS OF USE THEREOF” (The Regents of the University of California, priority 2017, published 2020).
Entries after “also recorded” stand apart in the source; their conditions may differ.

Experiments:
[1] = tested on: green bean seedlings; experiment: Agar-based plant growth inhibition assay on MS media; format: in vivo; details: 50 μM aspterric acid, day 3 and day 7
Procedure: Sterile green bean seedlings were plated on MS media containing 50 μM aspterric acid and 1% DMSO (to increase the solubility of aspterric acid) on day 0. MS media containing only 1% DMSO was used as a control. Growth was assessed on day 3 and day 7.

[2] = tested on: S. cerevisiae ΔILV3 expressing AstD; experiment: Growth inhibition of S. cerevisiae ΔILV3 in ILV dropout media; format: cell-based; details: Saccharomyces cerevisiae, read-out: IC50 of growth inhibition, yeast expressing AstD
Procedure: Growth inhibition assay of S. cerevisiae on plates or in the tubes. S. cerevisiae was grown in isoleucine, leucine and valine (ILV) dropout media (20 g/L glucose, 0.67 g/L Difco™ Yeast Nitrogen Base w/o amino acids, 18 mg/L adenine, arginine 76 mg/L, asparagine 76 mg/L, aspartic acid 76 mg/L, glutamic acid 76 mg/L, histidine 76 mg/L, lysine 76 mg/L, methionine 76 mg/L, phenylalanine 76 mg/L, serine 76 mg/L, threonine 76 mg/L, tryptophan 76 mg/L, tyrosine 76 mg/L) to test growth inhibition of AA on S. cerevisiae. S. cerevisiae was incubated at 28° C. until OD600 of the control strain without AA treatment reached about 0.8. The ratio of yeast OD600 in media with AA treatment to yeast OD600 in media without AA was calculated as the percentage of growth inhibition. The inhibition curve was plotted as percentage of inhibition versus AA concentrations. […] The growth curves of TY05, TY06 and TY07 were also plotted (FIG. 29A-29D). The OD600 was recorded for every 20 minutes over a total of 50 h. The inhibition percentage can be calculated by following equation: […]

[3] = tested on: tomato seedlings (Solanum lycopersicum); experiment: Agar-based plant growth inhibition assay on MS media; format: in vivo; details: 50 μM aspterric acid
Procedure: Sterile tomato seedlings were plated on MS media containing 50 μM aspterric acid and 1% DMSO (to increase the solubility of aspterric acid) or on MS media containing 50 μM glyphosate on day 0. MS media containing only 1% DMSO was used as a control. Growth was assessed on day 3 and day 7.
Growth inhibition assay of plants on plates or in the tubes. MS (2.16 g/L Murashige and Skoog basal medium, 8 g/L sucrose, 8 g/L agar) media was used to test the growth inhibition of AA on A. thaliana, Solanum lycopersicum, and Zea mays. A. thaliana, S. lycopersicum, G. max and Z. mays were grown under long day condition (16/8 h light/dark) using cool-white fluorescence bulbs as the light resource at 23° C. AA was dissolved in ethanol and added to the media before inoculating strains or growing plants. The media of control treatment contains the same amount of ethanol, but without AA.

[4] = target: T1, Arabidopsis thaliana housekeeping DHAD (pDHAD) (Arabidopsis thaliana, UniProt Q9LIR4); experiment: DHAD enzymatic inhibition assay (phenylhydrazine derivatization, LC-MS); format: biochemical
T1 construct: […]; 6xHis (N); made in house; host or cells: E. coli BL21 (DE3)
T1 sequence (Q9LIR4 35-608): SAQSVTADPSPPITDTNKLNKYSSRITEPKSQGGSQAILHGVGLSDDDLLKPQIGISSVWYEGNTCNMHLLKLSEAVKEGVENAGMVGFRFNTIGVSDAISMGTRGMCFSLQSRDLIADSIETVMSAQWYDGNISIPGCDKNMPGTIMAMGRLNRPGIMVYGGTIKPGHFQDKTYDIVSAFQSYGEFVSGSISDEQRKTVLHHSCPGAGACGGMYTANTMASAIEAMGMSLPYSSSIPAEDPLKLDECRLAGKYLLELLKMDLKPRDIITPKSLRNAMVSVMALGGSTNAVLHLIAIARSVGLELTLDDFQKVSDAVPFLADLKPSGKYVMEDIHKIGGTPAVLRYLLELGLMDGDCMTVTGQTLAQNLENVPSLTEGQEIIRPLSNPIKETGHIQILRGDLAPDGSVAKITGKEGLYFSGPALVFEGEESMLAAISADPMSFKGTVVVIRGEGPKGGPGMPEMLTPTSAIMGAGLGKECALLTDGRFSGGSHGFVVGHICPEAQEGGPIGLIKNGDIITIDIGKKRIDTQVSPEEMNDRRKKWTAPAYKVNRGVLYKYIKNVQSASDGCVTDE
Procedure: Enzymatic activity reactions were carried out in […] volumes containing 50 mM storage buffer, 10 mM (±)-Sodium 2,3-dihydroxyisovalerate hydrate (DHAD substrate) and 1 μM purified DHAD enzyme. After incubation for 30 minutes at 30° C., the reaction was stopped by adding an equal volume of ethanol. 1/10 volumes of 100 mM phenylhydrozine was added at room temperature for 30 minutes to derivatize the DHAD-synthesized molecule (3-methyl-2-oxo-butanoic acid) into a detectable derivatization product (DDP). See FIG. 5A for an overview of reactions.
Inhibition assays were carried out according to the reactions described above. First, phenylhydrozine was added to 3-methyl-2-oxo-butanoic acid to validate the derivatization reaction. Next, DHAD substrate was incubated with 1 μM purified DHAD enzyme from A. thaliana (with or without DMSO) then derivatized with phenylhydrozine to validate the activity of the purified DHAD enzyme. Finally, DHAD substrate was incubated with 1 μM purified DHAD enzyme from A. thaliana and 1 mM aspterric acid in DMSO then derivatized with phenylhydrozine to determine if DHAD was inhibited by aspterric acid. 20 μL of the reaction mixture was subject to LC-MS analysis, and DDP was detected by UV absorption at 350 nm. The area of the peak that corresponded to DDP was used to quantify the amount of (±)-Sodium 2,3-dihydroxyisovalerate hydrate that was converted into DDP.
Inhibition assays were carried out according to the reactions described above by incubating purified DHAD enzymes (either the housekeeping DHAD from Aspergillus terreus, the housekeeping DHAD from Arabidopsis thaliana, or AstD from Aspergillus terreus) with aspterric acid at various concentrations. For AstD, up to 8 mM of aspterric acid was tested. […] The half maximal inhibitory concentration (IC50) and the effect of aspterric acid on the enzyme kinetics of each purified DHAD enzyme was calculated based on the initial reaction rates observed in the inhibition assays.
Biochemical assay of DHADs. […] The area of the HPLC peak with UV absorption at 350 nm was used to quantify the amount of 6. […]

[5] = tested on: pollen development in Arabidopsis thaliana; experiment: Pollen development in AA treated plants; format: in vivo; details: treated before flowering; listed as AA

CC(C)=C1CC[C@]23CO[C@H](C2)[C@@](O)(C(=O)O)CC[C@@H]13 [aspterric acid]
growth of green bean seedlings on MS media [1]: significant vegetative growth inhibition
IC50 [2]: ~200 µM
growth of tomato (Solanum lycopersicum) on MS media [3]: significant vegetative growth inhibition
growth of tomato (Solanum lycopersicum) on MS media ([3]; listed as AA): effective inhibitor of root development and plant growth
pDHAD activity in presence of AA ([4]; 10 μM AA): abolished pDHAD activity
DHAD enzymatic activity in presence of aspterric acid ([4]; 1 mM aspterric acid, 1 μM enzyme): completely inhibited
mode of inhibition of pDHAD ([4]; kinetic analyses): competitive inhibitor
pollen formation in AA treated A. thaliana [5]: failed to form normal pollen; also recorded: depleted of healthy and mature pollen
